Test systems include NCI-H522; MDA-MB-435; SK-MEL-2; MDA-N; LOX IMVI; MCF7; 786-0; T47D; CCRF-CEM; RXF 393; A498; SF-268; Hs-578T; HOP-62; IGROV-1; NCI-H23; M14; OVCAR-4; PC-3; SNB-75.
Holding throughout (experiment): growth of human tumour cells (NCI), 48 h

From ChEMBL document CHEMBL1201862, “PubChem BioAssay data set” (2004) come the findings set out here.

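Following 48 hours of exposure in 96-well plates, responses at five concentrations were used to interpolate endpoints linearly. Here, GI50 denotes the concentration required for 50% inhibition of growth.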 Calls of active or inactive are those of the source. Rule as the data show it: active = GI50 up to about 1.1 µM and inactive = higher.

For `O=C(O)c1cnccc1-c1cc(=O)[nH]n1-c1ccccc1`, the GI50 with NCI-H522 is > 63.4 µM (inactive); in the experiment on MDA-MB-435, 46 µM (inactive); with SK-MEL-2 it was > 63.2 µM (inactive); in the experiment on MDA-N, 41.8 µM (inactive); in the experiment on LOX IMVI, 6.76 µM (inactive); with MCF7, 43.2 µM (inactive). Also, the GI50 with 786-0 was > 79.6 µM (inactive); with T47D, 23.5 µM (inactive); in the experiment on CCRF-CEM, 34.4 µM (inactive); in the experiment with RXF 393 it was 98.6 µM (inactive); in the experiment with A498, > 100 µM (inactive); with SF-268, > 83.2 µM (inactive). In addition, the GI50 was > 91.8 µM (inactive) in the experiment on Hs-578T; 51.1 µM (inactive) in the experiment with HOP-62; > 21.3 µM (inactive) in the experiment on IGROV-1; 97.7 µM (inactive) in the experiment on NCI-H23; 10.8 µM (inactive) with M14; > 51.9 µM (inactive) in the experiment on OVCAR-4. In addition, the GI50 was 16.3 µM (inactive) in the experiment on PC-3 and > 68.5 µM (inactive) in the experiment with SNB-75.
As to `CN(C)CCNc1ccc(C(=O)NCCCN(C)CCCNC(=O)c2ccc(NCCN(C)C)c3c(=O)c4ccccc4[nH]c23)c2[nH]c3ccccc3c(=O)c12`, the GI50 is < 0.01 µM (active) in the experiment on NCI-H522; 0.032 µM (active) with MDA-MB-435; 0.0489 µM (active) in the experiment with SK-MEL-2; 0.0346 µM (active) in the experiment on MDA-N; < 0.01 µM (active) with LOX IMVI; < 0.01 µM (active) in the experiment on MCF7. Also, the GI50 in the experiment on 786-0 is < 0.0119 µM (active); with T47D, 0.119 µM (active); with CCRF-CEM it was < 0.01 µM (active); in the experiment on RXF 393 it was 0.0809 µM (active); with A498 it was 0.105 µM (active); in the experiment on SF-268, < 0.01 µM (active). The GI50 was < 0.0347 µM (active) in the experiment on Hs-578T; < 0.0291 µM (active) with HOP-62; < 0.01 µM (active) in the experiment with IGROV-1; 0.0489 µM (active) in the experiment on NCI-H23; 0.218 µM (active) with M14; 0.0322 µM (active) with OVCAR-4. Besides, the GI50 was 0.0783 µM (active) in the experiment with PC-3 and < 0.01 µM (active) in the experiment on SNB-75.
For `COc1cc(C(=O)NNC(=O)c2cc(Br)ccc2NC(=O)c2cccs2)cc(OC)c1OC`, the GI50 in the experiment on NCI-H522 is 20.7 µM (inactive); with MDA-MB-435, 19.8 µM (inactive); with SK-MEL-2 it was 18.6 µM (inactive); with MDA-N it was 24.8 µM (inactive); in the experiment with LOX IMVI, 15.3 µM (inactive); in the experiment on MCF7, 14.4 µM (inactive). Besides, the GI50 in the experiment on 786-0 was 17.7 µM (inactive); in the experiment on T47D, 19.5 µM (inactive); with CCRF-CEM, 18.1 µM (inactive); in the experiment on RXF 393, 13.1 µM (inactive); with A498, 19.1 µM (inactive); in the experiment with SF-268, 9.64 µM (inactive). The GI50 is 20.9 µM (inactive) in the experiment with Hs-578T; 16.3 µM (inactive) in the experiment on HOP-62; 22.6 µM (inactive) with IGROV-1; 19.4 µM (inactive) in the experiment with NCI-H23; 19.3 µM (inactive) in the experiment on M14; 12 µM (inactive) in the experiment on OVCAR-4. Moreover, the values for the GI50 in the experiment with PC-3 and in the experiment with SNB-75 were 24 µM (inactive) and 4.91 µM (inactive), respectively.
As for `CCC1([N+](=O)[O-])CN(N=O)C1`, the GI50 in the experiment with NCI-H522, with MDA-MB-435, in the experiment on SK-MEL-2, in the experiment with MDA-N, in the experiment on LOX IMVI and with MCF7 was > 100 µM (inactive) throughout. In addition, the GI50 in the experiment with 786-0, in the experiment with T47D, in the experiment with CCRF-CEM, with RXF 393, with A498 and in the experiment on SF-268 was > 100 µM (inactive) in each case. Moreover, the GI50 with Hs-578T, in the experiment on HOP-62, in the experiment with IGROV-1, with NCI-H23, in the experiment with M14 and with OVCAR-4 was > 100 µM (inactive) each time. In addition, the GI50 in the experiment with PC-3 and in the experiment with SNB-75 was > 100 µM (inactive) throughout.
On to `C[N+](C)(CCNC(=O)c1cccc2cc3ccccc3nc12)Cc1ccc([N+](=O)[O-])cc1`, for which the GI50 with NCI-H522, with MDA-MB-435, in the experiment on SK-MEL-2, in the experiment with MDA-N, with LOX IMVI and in the experiment on MCF7 was > 100 µM (inactive) in each case. Further, the GI50 in the experiment with 786-0, in the experiment on T47D, in the experiment on CCRF-CEM, in the experiment with RXF 393, in the experiment on A498 and with SF-268 was > 100 µM (inactive) throughout. Moreover, the GI50 in the experiment with Hs-578T, with HOP-62, in the experiment with IGROV-1, in the experiment with NCI-H23, in the experiment with M14 and in the experiment with OVCAR-4 was > 100 µM (inactive) throughout. Further, the GI50 in the experiment with PC-3 and with SNB-75 was > 100 µM (inactive) throughout.
